# Test results: patent US10633389B2, “CARM1 inhibitors and uses thereof” (Epizyme, Inc., priority 2013, dated 2020)
# Test system: asymmetric di-methyl PABP1 in RKO cells
# Assay: RKO methylation assay, In Cell Western (ICW) for asymmetric di-methyl PABP1
# Type: cell-based
# Settings: Homo sapiens, RKO, Cellular potencies, ICW PABP1me2a
# How it was run: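 In-cell Western on fixed RKO cells after 48 h compound exposure: anti-asymmetric di-methyl PABP1 signal at 800 nm over DRAQ5 DNA signal at 700 nm. Percent inhibition set between DMSO wells and wells with 20 μM reference compound; IC50 curves fitted in triplicate.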
row,SMILES,IC50
1,CNCC(O)COc1cccc(-c2nc(-c3c(C)noc3C)c(C)c(N3CCO[C@@H](CN(C)C(=O)OC)C3)n2)c1 (some centres unmarked) [Example 149-1a],< 5 µM
2,CNCC(O)COc1cccc(-c2nc(-c3ccnc(C(C)(C)O)c3)cc(N(C)C3CCOCC3)n2)c1 (centres unmarked) [Example 503-1a],< 5 µM
3,CNCC(O)COc1cccc(-c2nc(NC3CCOC3)c(C)c(N3CC(N)CC(Cl)C3)n2)c1 (centres unmarked) [Example 442-1a],10 to 20 µM
4,CNC[C@@H](O)COc1ccc(Cl)c(-c2nc(NC[C@H]3CCCN3C(=O)OC(C)C)c(C)c(-c3c(C)noc3C)n2)c1 [Example 160-3],< 5 µM
5,CCO[C@@H]1CCC[C@H]1N(CC)c1nc(-c2cc(OC[C@H](O)CNC)ccc2Cl)nc(-c2c(C)noc2C)c1C [Example 241-3],< 5 µM
6,CNC[C@H](O)COc1ccc(Cl)c(-c2nc(N[C@@H]3CCOC3)c(C)c(-c3c(C)noc3C)n2)c1 [Example 94-3],< 5 µM
7,CCOC(=O)N1CCC2(CC1)CN(c1nc(-c3cc(OC[C@H](O)CNC)ccc3Cl)nc(-c3c(C)noc3C)c1C)C2 [Example 285-3],< 5 µM
8,CNC[C@@H](O)COc1ccc(F)c(-c2nc(-c3c(C)noc3C)cc(N3CC4(CCOCC4)C3)n2)c1 [Example 277-3],< 5 µM
9,CNCC(O)COc1cccc(-c2nc(NC3CCCC3)c(C)c(-c3c(C)noc3C)n2)c1 (centres unmarked) [Example 241-1a],< 5 µM
10,CNCC(O)COc1cccc(-c2nc(N[C@@H]3CC[C@H](O)C3)c(C)c(-c3c(C)noc3C)n2)c1 (some centres unmarked) [Example 163-1a],< 5 µM
11,CNCC(O)COc1cccc(-c2nc(NCC3(OC)CCOCC3)c(C)c(-c3c(C)noc3C)n2)c1 (centres unmarked) [Example 300-1a],< 5 µM
12,CNCC(O)COc1cccc(-c2nc(Nc3cnc(C)nc3)cc(-c3c(C)noc3C)n2)c1 (centres unmarked) [Example 49-1a],5 to 10 µM
13,CNCC(O)COc1cccc(-c2nc(NC[C@H]3COCCN3CC(F)F)c(C)c(-c3c(C)noc3C)n2)c1 (some centres unmarked) [Example 274-1a],< 5 µM
14,CNCC(O)COc1cccc(-c2nc(NC(C)C3CCOCC3)c(C)c(-c3c(C)noc3C)n2)c1 (centres unmarked) [Example 157-1a],< 5 µM
15,CNCC(O)COc1cccc(-c2nc(OC3CCOCC3)c(C)c(-c3c(C)noc3C)n2)c1 (centres unmarked) [Example 181-1a],< 5 µM
16,CNC[C@H](O)COc1ccc(Cl)c(-c2nc(NC[C@H]3COCCN3C(=O)OC)c(C)c(-c3c(C)noc3C)n2)c1 [Example 58-3],< 5 µM
17,CNC[C@@H](O)COc1ccc(Cl)c(-c2nc(N[C@H]3CCO[C@@H](C)C3)c(C)c(-c3c(C)noc3C)n2)c1 [Example 128-3],< 5 µM
18,CNC[C@@H](O)COc1ccc(Cl)c(-c2nc(-c3c(C)noc3C)cc(N3CC4(CCOCC4)C3)n2)c1 [Example 249-3],< 5 µM
19,CNCC(O)COc1cccc(-c2nc(-c3sc(C)nc3C)cc(N(C)C3CCOCC3)n2)c1 (centres unmarked) [Example 569-1a],10 to 20 µM
20,CNCC(O)COc1cc(N)cc(-c2nc(NC3CCOCC3)c(C)c(-c3c(C)noc3C)n2)c1 (centres unmarked) [Example 74-1a],5 to 10 µM
21,CNC[C@@H](O)COc1ccc(Cl)c(-c2nc(OC[C@H]3CCOC3)c(C)c(-c3c(C)noc3C)n2)c1 [Example 117-3],< 5 µM
22,CNCC(O)COc1cccc(-c2nc(NC3CCOCC3)cc(-c3ccc(OC)c(OC)c3)n2)c1 (centres unmarked) [Example 658-1a],≥ 20 µM
23,CNCC(O)COc1cccc(-c2nc(NC3(C)CCOCC3)cc(-c3c(C)noc3C)n2)c1 (centres unmarked) [Example 85-1a],< 5 µM

row,SMILES,IC50
1,CNCC(O)COc1cccc(-c2nc(N(C)C3CCOCC3)cc(N3C[C@H]4C[C@@H]3CN4)n2)c1 (some centres unmarked) [Example 562-1a],10 to 20 µM
2,CNCC(O)COc1cccc(-c2nc(-c3c(C)noc3C)c(C)c(N3CCC[C@@H](NC)C3)n2)c1 (some centres unmarked) [Example 177-1a],5 to 10 µM
3,CNC[C@H](O)COc1ccc(Cl)c(-c2nc(NC3CCN(C(=O)OC)CC3)c(C)c(-c3c(C)noc3C)n2)c1 [Example 89-3],< 5 µM
4,CNCC(O)COc1cc(Cl)cc(-c2nc(-c3ccncc3)c(C)c(N(C)[C@H]3CCOC3)n2)c1 (some centres unmarked) [Example 334-1a],10 to 20 µM
5,CNCC(O)COc1cccc(-c2nc(NC3CCOC3)c(C)c(N3CC4CC(C3)N4)n2)c1 (centres unmarked) [Example 452-1a],10 to 20 µM
6,CCO[C@@H]1CCC[C@@H]1N(CC)c1nc(-c2cc(OC[C@H](O)CNC)ccc2Cl)nc(-c2c(C)noc2C)c1C [Example 254-3],5 to 10 µM
7,CNCC(O)COc1cccc(-c2nc(-c3cnc4c(C(=O)OC)cnn4c3)cc(N(C)C3CCOCC3)n2)c1 (centres unmarked) [Example 482-1a],< 5 µM
8,CCS(=O)(=O)N1CCOC[C@@H]1CNc1nc(-c2cccc(OCC(O)CNC)c2)nc(-c2c(C)noc2C)c1C (some centres unmarked) [Example 230-1a],< 5 µM
9,CNC[C@H](O)COc1ccc(Cl)c(-c2nc(N[C@H]3CCN(C(=O)OC)[C@H](C)C3)c(C)c(-c3c(C)noc3C)n2)c1 [Example 103-3],< 5 µM
10,CNCC(O)COc1cccc(-c2nc(N[C@@H]3CCOC3)c(Cl)c(N3CCOCC3)n2)c1 (some centres unmarked) [Example 376-1a],5 to 10 µM
11,CNCC(O)COc1cccc(-c2nc(NC3CN(CC(F)F)C3)c(C)c(-c3c(C)noc3C)n2)c1 (centres unmarked) [Example 237-1a],10 to 20 µM
12,CCN(CC)c1nc(-c2cccc(OCC(O)CNC)c2)nc(N2CCOCC2)c1C (centres unmarked) [Example 682-1a],≥ 20 µM
13,CNC[C@@H](O)COc1ccc(Cl)c(-c2nc(-c3c(C)noc3C)c(C)c(N3CC4(CCCOC4)C3)n2)c1 [Example 119-3],< 5 µM
14,CNC[C@@H](O)COc1ccc(Cl)c(-c2nc(-c3c(C)noc3C)c(C)c(N3CC(F)(F)C3)n2)c1 [Example 184-3],< 5 µM
15,CNCC(O)COc1cccc(-c2nc(N[C@@H]3CCOC3)c(C)c(N3CCC(N4CCOCC4)CC3)n2)c1 (some centres unmarked) [Example 367-1a],5 to 10 µM
16,CNCC(O)COc1cccc(-c2nc(N[C@@H]3CCOC3)c(C)c(-c3cncnc3)n2)c1 (some centres unmarked) [Example 350-1a],10 to 20 µM
17,CCOC(=O)N1CCN(c2nc(-c3cccc(OCC(O)CNC)c3)nc(N[C@@H]3CCOC3)c2C)CC1 (some centres unmarked) [Example 456-1a],< 5 µM
18,CNC[C@@H](O)COc1ccc(Cl)c(-c2nc(-c3c(C)noc3C)c(Cl)c(N3Cc4nc(C)sc4C3)n2)c1 [Example 243-3],< 5 µM
19,CNCC(O)COc1cccc(-c2nc(N[C@H]3CCOC3=O)c(C)c(-c3c(C)noc3C)n2)c1 (some centres unmarked) [Example 281-1a],10 to 20 µM
20,CNCC(O)COc1cccc(-c2nc(N[C@@H]3CCOC3)c(C)c(N3CCN(C)C(=O)C3)n2)c1 (some centres unmarked) [Example 435-1a],10 to 20 µM
21,CNCC(O)COc1cccc(-c2nc(-c3c(C)noc3C)cc(N3CCN(CCF)CC3)n2)c1 (centres unmarked) [Example 68-1a],5 to 10 µM
22,CNCC(O)COc1cccc(-c2nc(N[C@@H]3CCOC3)c(C)c(-c3cncc(C(=O)OC)c3)n2)c1 (some centres unmarked) [Example 340-1a],10 to 20 µM
23,CNC[C@@H](O)COc1ccc(Cl)c(-c2nc(-c3c(C)noc3C)c(C)c(N3Cc4ccncc4C3)n2)c1 [Example 159-3],< 5 µM

row,SMILES,IC50
1,CNCC(O)COc1cccc(-c2nc(NCC3CCN(C4COC4)CC3)c(C)c(-c3c(C)noc3C)n2)c1 (centres unmarked) [Example 262-1a],< 5 µM
2,CNCC(O)COc1cccc(-c2nc(-c3c(C)noc3C)cc(N3CCNC(C(=O)O)C3)n2)c1 (centres unmarked) [Example 29-1a],10 to 20 µM
3,CCOC(=O)N1CC2(CCCN(c3nc(-c4cccc(OCC(O)CNC)c4)nc(-c4c(C)noc4C)c3C)C2)C1 (centres unmarked) [Example 295-1a],< 5 µM
4,CNC[C@@H](O)COc1ccc(Cl)c(-c2nc(-c3c(C)noc3C)c(C)c(N3CCC4(CCOC4)C3)n2)c1 (some centres unmarked) [Example 288-3],< 5 µM
5,CNC[C@@H](O)COc1cccc(-c2nc(NC3CCN(C(=O)OC)C(C)C3)c(C)c(-c3c(C)noc3C)n2)c1 (some centres unmarked) [Example 32-3],< 5 µM
6,CNC[C@@H](O)COc1ccc(Cl)c(-c2nc(N[C@@H]3CO[C@@H](C)C3)c(C)c(-c3c(C)noc3C)n2)c1 [Example 162-3],< 5 µM
7,CNCC(O)COc1cccc(-c2nc(NCC3CCN(C4CC4)CC3)c(C)c(-c3c(C)noc3C)n2)c1 (centres unmarked) [Example 283-1a],< 5 µM
8,CNCC(O)COc1cccc(-c2nc(-c3c(C)noc3C)c(C)c(N3CCC4(CC3)CN(C3CC3)C4)n2)c1 (centres unmarked) [Example 294-1a],< 5 µM
9,CNC[C@@H](O)COc1cccc(-c2nc(NC3CCN(C(=O)OC)CC3)c(C)c(-c3c(C)noc3C)n2)c1 [Example 170-1a],< 5 µM
10,CNC[C@@H](O)COc1ccc(Cl)c(-c2nc(N[C@H]3CO[C@@H](C)C3)c(Cl)c(-c3c(C)noc3C)n2)c1 [Example 148-3],< 5 µM
11,CNCC(O)COc1cccc(-c2nc(-c3c(C)noc3C)c(C)c(N3CCO[C@H](C)C3)n2)c1 (some centres unmarked) [Example 211-1a],< 5 µM
12,CNC[C@@H](O)COc1ccc(Cl)c(-c2nc(-c3c(C)noc3C)c(C)c(N3Cc4[nH]nc(C)c4C3)n2)c1 [Example 224-3],< 5 µM
13,CNCC(O)COc1cccc(-c2nc(N[C@H]3C[C@H]4CC[C@@H](C3)N4C(=O)OC)c(C)c(-c3c(C)noc3C)n2)c1 (some centres unmarked) [Example 266-1a],< 5 µM
14,CNC[C@@H](O)COc1ccc(Cl)c(-c2nc(-c3c(C)noc3C)c(C)c(N3CC4(CCCCO4)C3)n2)c1 [Example 290-3],< 5 µM
15,CNCC(O)COc1cccc(-c2nc(NCC3CCOCC3)c(C)c(-c3c(C)noc3C)n2)c1 (centres unmarked) [Example 88-1a],< 5 µM
16,CNCC(O)COc1cccc(-c2nc(NCC3CN(C)CCO3)c(C)c(-c3c(C)noc3C)n2)c1 (centres unmarked) [Example 171-1a],< 5 µM
17,CNC[C@@H](O)COc1ccc(Cl)c(-c2nc(-c3c(C)noc3C)c(C)c(N3CC(F)C3)n2)c1 [Example 206-3],< 5 µM
18,CNCC(O)COc1cccc(-c2nc(NC3CCC[C@H]3O)c(C)c(-c3c(C)noc3C)n2)c1 (some centres unmarked) [Example 219-1a],< 5 µM
19,CC[C@H]1CN(c2cc(N(C)C3CCOCC3)nc(-c3cccc(OCC(O)CNC)c3)n2)CCN1 (some centres unmarked) [Example 505-1a],< 5 µM
20,CNCC(O)COc1cccc(-c2nc(-c3c[nH]c4ncncc34)cc(N(C)C3CCOCC3)n2)c1 (centres unmarked) [Example 504-1a],< 5 µM
21,CNCC(O)COc1cccc(-c2nc(NC3(C)CCOCC3)c(C)c(-c3c(C)noc3C)n2)c1 (centres unmarked) [Example 101-1a],< 5 µM
22,CNCC(O)COc1cccc(-c2nc(-c3ccnc(C)c3)cc(N(C)C3CCOCC3)n2)c1 (centres unmarked) [Example 40-1],5 to 10 µM
